Measured values from patent US7858613B2, “Substituted benzo-condensed cycloheptanone derivatives and their use for producing drugs” (Gruenenthal GmbH, priority 2005, dated 2010).

What was measured:
human CB2 receptor = target: T1, human CB2 receptor (Homo sapiens, UniProt P34972); experiment: Affinity for cannabinoid receptor CB2, [3H]-CP 55,940 displacement on HEK-293EBNA membranes; details: 10 μM test substance; 0.33 nM [3H]-CP 55,940; percent inhibition of specific binding
T1 construct: expressed in transfected cells; host or cells: HEK-293EBNA cells (membranes)
T1 sequence (P34972 whole entry): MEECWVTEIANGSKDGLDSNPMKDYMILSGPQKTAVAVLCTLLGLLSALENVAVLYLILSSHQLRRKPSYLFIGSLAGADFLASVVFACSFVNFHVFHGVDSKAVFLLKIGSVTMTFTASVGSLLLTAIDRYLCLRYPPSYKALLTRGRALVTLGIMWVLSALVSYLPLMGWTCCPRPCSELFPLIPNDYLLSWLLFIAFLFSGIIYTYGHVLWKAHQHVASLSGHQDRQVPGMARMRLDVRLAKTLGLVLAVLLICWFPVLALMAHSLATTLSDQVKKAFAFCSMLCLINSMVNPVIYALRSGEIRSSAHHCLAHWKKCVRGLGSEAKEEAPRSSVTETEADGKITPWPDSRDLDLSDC
From the text: VI. Determination of the Affinity for the Cannabinoid Receptor CB2 (CB2 Receptor):
To determine the affinity of the inventive compounds for the cannabinoid receptor, membranes from human recombinant HEK-293EBNA cells were used, which had been transfected stably with the human CB2 receptor. The radioligand used was tritium-labeled 5-(1,1-dimethylheptyl)-2-(5-hydroxypropyl)cyclohexyl)-1-alpha,2-beta,5-alpha)phenol ([3]H—CP 55,940 with 103.4 Ci/mmol, 1 mCi/ml). The determination was effected in a test buffer composed of 50 mM Tris-HCl, 2.5 mM EDTA, 5 mM MgCl2 and 1.0 mg/ml of fatty acid-free BSA. The test substances were each dissolved in DMSO.
The affinity of the inventive compounds for the CB2 receptor is determined by their ability to displace [3]H—CP 55,940 from CB2 receptors in membranes from HEK-293EBNA cells. To this end, in each case 8 μg of the membranes (20 μl of a solution from membranes in a concentration of 400 μg/ml) are incubated in wells on a microtiter plate with a 0.33 nM solution of ^[3]H-CP […] (120 Ci/mmol) in a total volume of test buffer of 200 μl at 30° C. for 90 minutes.
Subsequently, either the test substances or WIN 55212-2 to determine the unspecific binding, in each case dissolved in DMSO, are added to the wells so as to result in each case in a concentration of the corresponding substances of 10 μM.
Incubation at 30° C. is continued for a further 40 minutes. The binding reaction was ended by rapid filtration through GF/C filter paper which had been treated with 0.05% PEI using a Brandel cell harvester with 96 wells. The filters are washed nine times with 0.5 ml of ice-cooled washing buffer ([…] Tris-HCl, 5 mM MgCl2, 2.5 mM EDTA, 2% BSA, pH 7.4), air-dried and placed in scintillation fluid, and the radioactivity is determined with the aid of a scintillation counter.
The percentage displacement of the radioactive ligand ^[3]H-CP 55,940 from its binding to the CB2 receptor is reported as percent inhibition of the specific binding.

vanilloid receptor (VR1) = target: T2, vanilloid receptor (VR1) (Homo sapiens, UniProt Q8NER1); experiment: Functional study on vanilloid receptor (VR1), FLIPR Ca2+ assay in VR1-transfected CHO K1 cells; assay type: cell-based; details: test substance 10 μM; CHO K1 cells transfected with VR1; suppression of Ca2+ current after 100 nM capsaicin; read-out: VR1 (human) (% inhibition compared to 10 μM CP)
T2 construct: expressed in transfected cells; host or cells: CHO K1 cells (ECACC)
T2 sequence (Q8NER1 whole entry): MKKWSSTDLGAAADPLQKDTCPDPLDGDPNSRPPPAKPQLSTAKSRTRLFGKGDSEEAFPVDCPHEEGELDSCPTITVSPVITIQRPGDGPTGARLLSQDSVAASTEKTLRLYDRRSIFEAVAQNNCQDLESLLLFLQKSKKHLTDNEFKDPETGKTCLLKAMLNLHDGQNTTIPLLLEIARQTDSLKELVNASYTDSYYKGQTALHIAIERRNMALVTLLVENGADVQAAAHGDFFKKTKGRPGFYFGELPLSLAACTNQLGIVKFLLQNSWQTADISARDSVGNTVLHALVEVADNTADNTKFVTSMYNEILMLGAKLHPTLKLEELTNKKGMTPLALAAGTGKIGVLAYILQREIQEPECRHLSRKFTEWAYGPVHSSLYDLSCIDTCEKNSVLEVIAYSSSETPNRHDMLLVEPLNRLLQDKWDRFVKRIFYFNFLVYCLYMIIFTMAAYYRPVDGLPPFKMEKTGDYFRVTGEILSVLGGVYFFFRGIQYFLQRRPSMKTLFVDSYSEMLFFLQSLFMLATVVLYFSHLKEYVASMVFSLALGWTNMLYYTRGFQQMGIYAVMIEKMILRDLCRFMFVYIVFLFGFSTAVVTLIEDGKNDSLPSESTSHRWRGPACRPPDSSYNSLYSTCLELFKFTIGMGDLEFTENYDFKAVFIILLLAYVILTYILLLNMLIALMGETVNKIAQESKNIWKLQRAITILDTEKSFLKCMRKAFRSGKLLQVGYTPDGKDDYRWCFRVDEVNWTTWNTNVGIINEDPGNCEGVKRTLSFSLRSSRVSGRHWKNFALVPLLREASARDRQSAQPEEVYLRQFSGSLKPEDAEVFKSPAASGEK
From the text: II. Functional Studies on the Vanilloid Receptor (VR1)
The agonistic or antagonistic action of the substances to be tested on vanilloid receptor (VR1) can also be determined with the assay which follows. In this assay, the Ca^2+ current through the channel is quantified with the aid of a Ca^2+-sensitive dye (Fluo-4 type, Molecular Probes, Europe BV, Leiden, the Netherlands) in a fluorescent imaging plate reader (FLIPR, Molecular Devices, Sunnyvale, USA).
Chinese hamster ovary cells (CHO K1 cells, European Collection of Cell Cultures (ECACC) Great Britain) are transfected stably with the VR1 gene. For functional studies, these cells are plated out onto poly-D-lysine-coated black 96-well plates with a clear bottom (BD Biosciences, Heidelberg, Germany) in a density of 25 000 cells/well. The cells are incubated overnight at 37° C. and 5% CO2 in a culture medium (Ham's Nutrient Mixture F12, 10% by volume of FCS (fetal calf serum), 18 μg/ml of L-proline). The next day, the cells are incubated with Fluo-4 (Fluo-4 2 μM, Pluronic F127 0.01% by volume, Molecular Probes in HBSS (Hank's buffered saline solution), Gibco Invitrogen GmbH, Karlsruhe, Germany) at 37° C. for 30 minutes. Subsequently, the plates are washed 3 times with HBSS buffer and, after a further incubation of 15 minutes at room temperature, used for Ca^2+ measurement in FLIPR. The Ca^2+-dependent fluorescence is measured before and after addition of the substances to be studied (wavelength λex=488 nm, λem=540 nm). The quantification is effected by measuring the highest fluorescence intensity (FC, fluorescence counts) over the time.
The FLIPR protocol consists of 2 substance additions. First, the substances to be tested (10 μM) are pipetted onto the cells and the Ca^2+ current is compared with the control (capsaicin 10 μM) (% activation based on the Ca^2+ signal after addition of 10 μM capsaicin). After incubation for 5 minutes, 100 nM capsaicin is applied and the current of Ca^2+ is likewise determined.
Desensitizing agonists and antagonists led to a suppression of the Ca^2+ current. % inhibition is calculated compared to the maximum achievable inhibition with 10 μM capsazepine.

[1] = target: T3, vanilloid receptor 1 (VR1/TRPV1) (Rattus norvegicus, UniProt O35433); experiment: Functional study on vanilloid receptor 1 (VR1/TRPV1), FLIPR Ca2+ assay in rat dorsal root ganglia cells; assay type: cell-based; details: test compound 10 μM, rat DRG cells; for inhibition at 10 µM: suppression of Ca2+ current after 100 nM capsaicin, read-out: VR1 (rat) (% inhibition compared to 10 μM CP)
T3 construct: The spinal column is removed from beheaded rats; from tissue; host or cells: primary cells from rat dorsal root ganglia
T3 sequence (O35433 whole entry): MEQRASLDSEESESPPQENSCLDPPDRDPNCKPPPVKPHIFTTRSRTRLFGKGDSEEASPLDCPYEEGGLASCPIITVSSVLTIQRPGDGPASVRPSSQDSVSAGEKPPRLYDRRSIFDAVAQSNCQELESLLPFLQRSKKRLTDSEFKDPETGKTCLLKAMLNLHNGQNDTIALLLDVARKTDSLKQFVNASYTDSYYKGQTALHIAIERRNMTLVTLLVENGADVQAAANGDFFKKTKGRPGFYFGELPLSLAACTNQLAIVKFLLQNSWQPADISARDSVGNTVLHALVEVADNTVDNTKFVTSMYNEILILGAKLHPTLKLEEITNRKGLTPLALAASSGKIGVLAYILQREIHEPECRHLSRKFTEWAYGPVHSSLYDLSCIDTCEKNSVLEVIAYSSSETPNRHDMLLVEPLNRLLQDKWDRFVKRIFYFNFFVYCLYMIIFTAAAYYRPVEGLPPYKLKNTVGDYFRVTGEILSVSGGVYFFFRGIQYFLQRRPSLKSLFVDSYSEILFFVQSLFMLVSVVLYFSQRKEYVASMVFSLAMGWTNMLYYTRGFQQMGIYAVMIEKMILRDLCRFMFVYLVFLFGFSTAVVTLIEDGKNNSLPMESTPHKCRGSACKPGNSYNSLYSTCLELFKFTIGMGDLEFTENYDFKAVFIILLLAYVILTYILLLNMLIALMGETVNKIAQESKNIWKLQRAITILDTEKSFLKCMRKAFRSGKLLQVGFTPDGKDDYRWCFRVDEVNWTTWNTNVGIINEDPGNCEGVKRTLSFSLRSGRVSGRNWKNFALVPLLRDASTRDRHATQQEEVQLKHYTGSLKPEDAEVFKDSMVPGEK
Procedure: Preference may likewise be given to inventive compounds which, in the FLIPR assay, in a concentration of 10 μM, have an inhibition of the Ca^2+ ion current in dorsal root ganglia of rats of at least 10%, preferably of at least 30%, more preferably of at least 50%, even more preferably of at least 70%, even more preferably of at least 90%, compared to the maximum achievable inhibition of the Ca^2+ ion current with […] in a concentration of 10 μM.
In the FLIPR assay, the Ca^2+ current is quantified with the aid of a Ca^2+-sensitive dye (Fluo-4 type, Molecular Probes Europe BV, Leiden, the Netherlands) in the fluorescent imaging plate reader (FLIPR, Molecular Devices, Sunnyvale, USA), as described below.
I. Functional Study on the Vanilloid Receptor 1 (VR1/TRPV1 Receptor)
The agonistic or antagonistic action of the substances to be studied on the vanilloid receptor 1 (VR1/TRPV1) of the rat species can be determined with the following assay. In this assay, the Ca^2+ current through the receptor channel is quantified with the aid of a Ca^2+-sensitive dye (Fluo-4 type, Molecular Probes Europe BV, Leiden the Netherlands) in a fluorescent imaging plate reader (FLIPR, Molecular Devices, Sunnyvale, USA).
Cell culture plate: poly-D-lysine-coated, black 96-hole plates with a clear bottom (96 well black/clear plate, BD Biosciences, Heidelberg, Germany) are additionally coated with laminin (Gibco Invitrogen GmbH, Karlsruhe, Germany) by diluting laminin to a concentration of 100 μg/ml with PBS (Ca—Mg-free PBS, Gibco Invitrogen GmbH, Karlsruhe, Germany). Aliquots having a concentration of 100 μg/ml of laminin are withdrawn and stored at −20° C. The aliquots are diluted with PBS in a ratio of 1:10 to 10 μg/ml of laminin and in each case 50 μl of the solution are pipetted into a well of the cell culture plate. The cell culture plates are incubated at 37° C. for at least two hours, the supernatant solution is removed by suction and the wells are each washed twice with PBS. The coated cell culture plates are stored with supernatant PBS which is not removed until directly before the application of the cells.
The spinal column is removed from beheaded rats and placed directly into cold HBSS buffer (Hank's buffered saline solution, Gibco Invitrogen GmbH, Karlsruhe, Germany), i.e. placed in an ice bath, which has been admixed with 1% by volume of an AA solution (antibiotic/antimycotic solution, PAA, Pasching, Austria). The spinal column is severed longitudinally and removed from the spinal canal together with fasciae. Subsequently, the dorsal root ganglia (DRGs) are removed and in turn stored in cold HBSS buffer admixed with 1% by volume of an AA solution. The DRGs freed completely of blood residues and spinal nerves are in each case transferred to 500 μl of cold type 2 collagenase (PAA, Pasching, Austria) and incubated at 37° C. for 35 minutes. After addition of 2.5% by volume of trypsin (PAA, Pasching, Austria), incubation is continued at 37° C. for a further 10 minutes. After complete incubation, the enzyme solution is cautiously pipetted off and the remaining DRGs are each admixed with 500 μl of complete medium.
The DRGs are each suspended repeatedly, drawn through cannulas No. 1, No. 12 and No. 16 by means of a syringe and transferred to 50 ml Falcon tubes which are made up to 15 ml with complete medium. The contents of each Falcon tube are in each case filtered through a 70 μm Falcon filter insert and centrifuged at 1200 revolutions and room temperature for 10 minutes. The resulting pellet is in each case taken up in 250 μl of complete medium and the cell count is determined.
The number of cells in the suspension is adjusted to 3 times 10^5 per ml and in each case 150 μl of this suspension are added to one well of the cell culture plates coated as described above. In the incubator, the plates are left to stand at 37° C., 5% by volume of CO2 and 95% relative air humidity for two to three days. […]

| inhibition at 10 µM (human CB2 receptor) [%] | inhibition at 10 µM (vanilloid receptor (VR1)) [%] | inhibition at 10 µM [1] [%] | VR1 (rat) (% stimulation compared to 10 μM CP) ([1]; Ca2+ signal relative to 10 μM capsaicin (CP)) [%] | Structure (SMILES) |
| --- | --- | --- | --- | --- |
| 42.2 | – | – | – | CCCCCNC(=O)OCC1CCSc2ccccc2C1=O (stereo not drawn) [Example Compound 1, Pentylcarbamic acid 5-oxo-2,3,4,5-tetrahydrobenzo[b]thiepin-4-ylmethyl ester] |
| 36.2 | 53.8 | – | – | O=C(Nc1ccc(Br)cc1)OCC1CCSc2ccccc2C1=O (stereo not drawn) [Example Compound 5, (4-Bromophenyl)carbamic acid 5-oxo-2,3,4,5-tetrahydrobenzo[b]thiepin-4-ylmethyl ester] |
| 53.6 | 26.7 | – | – | O=C(NC1CCCCC1)OCC1(CO)CCSc2ccccc2C1=O (stereo not drawn) [Example Compound 6, Cyclohexylcarbamic acid 4-hydroxymethyl-5-oxo-2,3,4,5-tetrahydro-benzo[b]thiepin-4-ylmethyl ester] |
| 28.3 | 51.3 | 52.8 | – | O=C1c2ccccc2SCCC1(CO)COC(=S)Nc1ccccc1 (stereo not drawn) [Example Compound 9, Phenylthiocarbamic acid O-(4-hydroxymethyl-5-oxo-2,3,4,5-tetrahydro-benzo[b]thiepin-4-ylmethyl)ester] |
| 61.8 | – | – | – | CCCCCNC(=O)OCC1(COC(=O)NCCCCC)CCSc2ccccc2C1=O [Example Compound 14, pentylcarbamic acid 4-(pentylcarbamoyloxymethyl)-5-oxo-2,3,4,5-tetrahydrobenzo[b]thiepin-4-ylmethyl ester] |
| 63.4 | – | – | – | O=C(Nc1ccc(F)cc1F)OCC1(COC(=O)Nc2ccc(F)cc2F)CCOc2ccccc2C1=O [Example Compound 16, 2,4-Difluorophenylcarbamic acid 4-(2,4-difluorophenylcarbamoyloxymethyl)-5-oxo-2,3,4,5-tetrahydrobenzo[b]oxepin-4-ylmethyl ester] |
| 3.8 | 17.1 | 46.6 | – | O=C1c2ccccc2SCCC1(CO)COC(=S)Nc1cccc(C(F)(F)F)c1 (stereo not drawn) [Example Compound 17, (3-Trifluoromethylphenyl)thiocarbamic acid O-(4-hydroxymethyl-5-oxo-2,3,4,5-tetrahydrobenzo[b]thiepin-4-ylmethyl)ester] |
| 15.6 | 31.5 | 52.1 | – | O=C1c2ccccc2OCCC1(CO)COC(=S)Nc1cccc(C(F)(F)F)c1 (stereo not drawn) [Example Compound 18, (3-Trifluoromethylphenyl)thiocarbamic acid O-(4-hydroxymethyl-5-oxo-2,3,4,5-tetrahydrobenzo[b]oxepin-4-ylmethyl)ester] |
| 40.3 | 13.3 | 32.2 | – | O=C(NC(=O)c1ccccc1)OCC1(COC(=O)NC(=O)c2ccccc2)CCOc2ccccc2C1=O [Example Compound 19, Benzoylcarbamic acid 4-benzoylcarbamoyloxymethyl-5-oxo-2,3,4,5-tetrahydro-benzo[b]oxepin-4-ylmethyl ester] |
| 41 | 21.8 | 17.1 | – | O=C(Nc1ccc(F)cc1F)OCC1(CO)CCSc2ccccc2C1=O (stereo not drawn) [Example Compound 20, (2,4-Difluorophenyl)carbamic acid 4-hydroxymethyl-5-oxo-2,3,4,5-tetrahydro-benzo[b]thiepin-4-ylmethyl ester] |
| – | 36.3 | 34.6 | – | O=C1c2ccccc2SCCC1(CO)COC(=S)Nc1ccc(F)cc1F (stereo not drawn) [Example Compound 21, (2,4-Difluorophenyl)thiocarbamic acid O-(4-hydroxymethyl-5-oxo-2,3,4,5-tetrahydrobenzo[b]thiepin-4-ylmethyl)ester] |
| – | 67.5 | 59.7 | 77.9 | O=C1c2ccccc2CCCC1(CO)COC(=S)Nc1cccc(C(F)(F)F)c1 (stereo not drawn) [Example Compound 22, (3-Trifluoromethylphenyl)thiocarbamic acid O-(6-hydroxymethyl-5-oxo-6,7,8,9-tetrahydro-5H-benzocyclohepten-6-ylmethyl)ester] |
